Biological target: T1, mCOX-2^V349L (Mus musculus, UniProt Q05769, V335L)
T1 construct: made in house; host or cells: Sf9 insect cells (baculovirus, pVL1393)
T1 sequence (Q05769 18-604 V335L): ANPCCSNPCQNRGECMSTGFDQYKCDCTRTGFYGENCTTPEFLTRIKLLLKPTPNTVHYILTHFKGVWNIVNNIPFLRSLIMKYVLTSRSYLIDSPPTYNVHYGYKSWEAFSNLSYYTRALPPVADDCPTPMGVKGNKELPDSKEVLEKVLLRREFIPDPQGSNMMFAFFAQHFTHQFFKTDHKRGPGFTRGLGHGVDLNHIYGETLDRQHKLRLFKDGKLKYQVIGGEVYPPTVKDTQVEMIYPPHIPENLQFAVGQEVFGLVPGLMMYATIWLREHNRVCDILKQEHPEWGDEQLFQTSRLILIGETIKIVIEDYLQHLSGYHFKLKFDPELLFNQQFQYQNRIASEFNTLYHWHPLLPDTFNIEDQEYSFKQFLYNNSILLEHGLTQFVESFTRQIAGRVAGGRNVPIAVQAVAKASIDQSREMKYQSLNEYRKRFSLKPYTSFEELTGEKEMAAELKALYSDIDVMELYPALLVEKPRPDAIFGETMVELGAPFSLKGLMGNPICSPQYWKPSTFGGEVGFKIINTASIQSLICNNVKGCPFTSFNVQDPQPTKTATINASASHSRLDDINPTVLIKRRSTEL
Assay: Time-dependent IC50 COX inhibition assay
Type: biochemical, murine
Protocol: These mutated genes were used to assemble baculoviral constructs for large-scale expression in Sf9 cells. Purification of the expressed COX-2 protein was performed through traditional cellular fractionation and classical column chromatography. Activity or inhibition assays were performed in 100 mM Tris-HCl buffer containing 500 μM phenol, with hematin-reconstituted protein. Quantification of cyclooxygenase activity was performed by monitoring substrate (arachidonate or oxygen) consumption in a thermostatted cuvette at 37° C. using a polarographic electrode with a 5300 oxygen monitor (Yellow Springs Instrument Co. Inc., Yellow Springs, Ohio, United States of America). All inhibitors and substrates were solubilized in dimethyl sulfoxide (DMSO). Activity or inhibition assays were performed in 100 mM Tris-HCl buffer containing 500 μM phenol, with hematin-reconstituted protein. Maximal reaction velocity data were obtained from the linear portion of the oxygen uptake curves, and the data were analyzed by nonlinear regression with Prism 4.0 (GraphPad Software, San Diego, Calif., United States of America).
Time-dependent inhibition reactions were performed by pre-incubating the inhibitor and enzyme for 17 minutes at 25° C., followed by 3 minutes at 37° C. prior to the addition of 50 μM [1-^14C]-AA for 30 seconds at 37° C. Assays were terminated and analyzed for substrate consumption by thin layer chromatography as previously described (Kalgutkar et al., 2000a).
Maximal reaction velocity data were obtained from the linear portion of the oxygen uptake curves, and the data were analyzed by nonlinear regression. Instantaneous inhibition assays were performed with substrate and inhibitor added prior the initiation of the reaction by addition of protein. Time-dependent screening assays were performed by pre-incubating the inhibitor and enzyme for 17 minutes at 25° C., followed by 3 minutes at 37° C. prior to the addition of 50 μM [1-^14C]-arachidonic acid (AA) for 30 seconds at 37° C.
Assays were terminated and analyzed for substrate consumption by thin layer chromatography. […] Time-dependent COX inhibition reactions were pre-incubated at 37° C. for varying lengths of time (0-30 minutes) with various concentrations of inhibitor. All reactions were performed with [1-^14C]-AA for 30 seconds at 37° C.; reactions were terminated and analyzed as described above.
The COX reaction was allowed to proceed for 30 seconds before termination.

With `COc1ccc2c(c1)c(CC(=O)O)cn2C(=O)c1ccc(Cl)cc1` [DM-INDO, 2-Des-methylindomethacin] the “inhibition in the time-dependent IC50 assay” value was “less than 20%” and the IC50 (20 min pre-incubation, then 50 μM AA for 30 s) was over 16 µM.
